Laboratory results: US8063103B2, “Polymorphs of acyl sulfonamides” (Roche Palo Alto LLC, priority 2008, dated 2011)
Where a name gives a salt, the structure may show the parent alone. Read-outs that look alike come from different tables or passages of the source.

Procedure: Amorphous state of Ib can be prepared by dissolving Form VIII in 82% t-butanol/18% water at a drug concentration of ˜6 mg/mL. This solution was lyophilized overnight (˜18 hours) to form the amorphous material.

CCC(=O)NS(=O)(=O)c1ccc(NC(=O)Cc2ccc(Br)c(Oc3cc(Cl)cc(C#N)c3)c2F)c(Cl)c1 [amorphous material, 2-[4-Bromo-3-(3-chloro-5-cyano-phenoxy)-2-fluoro-phenyl]-N-(2-chloro-4-propionylsulfamoyl-phenyl)-acetamide, sodium salt]
stability of amorphous material on storage (25C/60 RH, at least one week): stable at 25C/60 RH for at least one week | stability of amorphous material on storage (40C/75 RH): not at 40C/75 RH
